Results published in patent US9433609B2, “Benzimidazole-imidazole derivatives” (Janssen Sciences Ireland UC, priority 2009, dated 2016).
pEC50: −log10 of the molar value.

Legend:
[1] = Counterscreen MT4-LTR-Luc; format: cell-based; details: human
From the text: Counterscreen cell lines included a Huh-7 hepatoma cell line containing a human cytomegalovirus major immediate-early promoter-Luc construct (Huh7-CMV-Luc) and an MT4 T-cell line containing a long terminal repeat-Luc reporter (MT4-LTR-Luc).

[2] = test system: HCV genotype 1b replicon with NS5A R30H; experiment: Transient HCV 1b replicon assay, NS5A mutant R30H; format: cell-based; details: Hepatitis C virus, read-out: EC50 R30H
From the text: In a transient set-up, a Huh-7 lunet hepatoma cell line was transiently transfected with an autonomously replicating RNA encoding a bi-cistronic expression construct. This construct comprises a firefly luciferase reporter gene preceding the NS3-NS5B subgenomic region of HCV (genotype 1a H77 or 1b Con1). Translation of the HCV subgenomic region is mediated by an internal ribosome entry site of encephalomyocarditis virus. The construct is furthermore flanked by 5′ and 3′ untranslated regions of HCV (genotype 1a H77 or 1b Con 1, respectively), which allow for replication of the RNA.
In addition to the wild-type constructs, site-directed mutations were introduced into the transient HCV genotype 1b replicon in the gene encoding for the non-structural protein 5A (NS5A). More precisely, amino acid residues 28, 30, 31 and 93 in NS5A were independently altered.
Cells were plated in 384 well plates in the presence of test and control compounds, which were added in various concentrations. Following an incubation of two days, replication of the HCV subgenomic replicon RNA was measured by assaying luciferase activity (using standard luciferase assay substrates and reagents and a Perkin Elmer ViewLux™ ultraHTS microplate imager). […] The inhibitory activity of the compound was monitored, enabling a dose-response curve for each test compound. […]

## COC(=O)N[C@H](C(=O)N1CCC[C@H]1c1ncc(-c2ccc(-c3ccc4nc([C@@H]5CCCN5C(=O)[C@@H](NC(=O)OC)C(C)C)[nH]c4c3)cc2)[nH]1)C(C)C [Compound 1]
[1]
  CC50: > 984 nM
[2]
  pEC50: 9.22
